From patent US12130282B2, “Universal fluorescence assay of high affinity ligand transport” (priority 2018, dated 2024)
“And” between values parts separate entries of the source, which are not always exact repeats. Identical values can stand only once. Like-named read-outs stand apart in the source and are kept apart here.

Legend:
EcoFepA-FM = molecular target: T1, EcoFepA-FM (Escherichia coli, UniProt P05825, A720C); test: Fluorescence quenching binding of ferric catecholates to E. coli OKN13/pEcoFepA-FM; conditions: summary of Table 2 for both KpnFepA-FM and EcoFepA-FM fluorescent sensors
T1 construct: expressed in transfected cells; host or cells: E. coli OKN13 (ΔtonB, ΔfepA), low-copy plasmid pHSG575 derivative
T1 sequence (P05825 23-746 A720C): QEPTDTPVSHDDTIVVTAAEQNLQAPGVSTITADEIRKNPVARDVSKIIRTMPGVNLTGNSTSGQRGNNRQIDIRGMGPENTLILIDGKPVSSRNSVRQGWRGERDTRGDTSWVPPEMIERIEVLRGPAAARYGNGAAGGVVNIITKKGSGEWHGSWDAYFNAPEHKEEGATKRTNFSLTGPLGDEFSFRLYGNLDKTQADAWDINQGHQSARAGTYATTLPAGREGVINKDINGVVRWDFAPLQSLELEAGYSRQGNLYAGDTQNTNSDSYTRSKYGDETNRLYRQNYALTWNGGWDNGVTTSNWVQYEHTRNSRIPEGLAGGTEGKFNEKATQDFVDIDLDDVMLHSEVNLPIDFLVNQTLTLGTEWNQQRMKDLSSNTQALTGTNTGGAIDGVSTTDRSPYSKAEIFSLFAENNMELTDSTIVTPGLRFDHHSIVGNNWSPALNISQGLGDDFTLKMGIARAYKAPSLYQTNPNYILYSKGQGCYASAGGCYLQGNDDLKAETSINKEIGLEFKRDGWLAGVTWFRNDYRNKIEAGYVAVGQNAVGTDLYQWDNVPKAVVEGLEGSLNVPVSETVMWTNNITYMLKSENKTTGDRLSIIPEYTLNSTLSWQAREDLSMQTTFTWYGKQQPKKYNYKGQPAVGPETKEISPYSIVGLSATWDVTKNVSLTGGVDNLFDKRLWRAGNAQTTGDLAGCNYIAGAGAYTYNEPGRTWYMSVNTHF
Excerpt: (§1) Affinity determinations by spectroscopic analyses The analytical capabilities of the fluorescence spectroscopic determinations stood out when we compared the recognition of FeEnt and its glucosylated form, FeGEnt (also known as ferric salmochelin), by EcoFepA and KpnFepA. The ability of Gram (−) pathogens, including K. pneumoniae, to glucosylate enterobactin and transport FeGEnt enhances their invasiveness, in part because glucosylation impairs recognition of the iron complex by lipocalins. Additionally, whereas E. coli K12 contains a single chromosomal fepA locus that encodes its FeEnt transporter, pathogenic K. pneumoniae contain at least three fepA orthologs (chromosomal loci 1658, 4984; plasmid PII locus 0027). IroN of Salmonella typhimurium has a role in FeGEnt uptake; its closest ortholog in K. pneumoniae is plasmid-mediated fepA0027. […]
(§2) Fluorescence modifications of Cys-mutant proteins. […]
(§3) Fluorescence spectroscopy. We observed fluorophore-labeled cells in an SLM AMINCO 8100 fluorescence spectrometer, upgraded with an OLIS operating system and software (OLIS SpectralWorks, OLIS Inc., Bogart, GA), to control its shutters, polarizers and data collection. We also utilized an OLIS Clarity fluorescence spectrometer for fluorescence assays of ferric catecholate binding.

K. pneumoniae Kp52.145 = test: FD sensor assay of FeEnt uptake rate by test strain (sensor OKN13/pEcoFepA-FM); format: cell-based
Method: FIG. 7. Uptake rates from FD assays. At t=60 s we added varying concentrations of FeEnt [(0.5 nM (green); 1 nM (yellow); 5 nM (orange); 10 nM (red)] to sensor strain OKN13/pEcoFepA-FM in the presence of test strain K. pneumoniae isolate Kp52.145. 10 nM FeEnt gave maximal quenching. For 1 and 5 nM FeEnt, at half-saturation (blue dashed line) we determined the slope of the time course (black dashed line) and the elapsed time (dashed red line). Either parameter estimated the transport rate of the test strain (see text).
Transport rates from spectroscopic analyses. The rate of fluorescence recovery in the spectroscopic system correlates to the rate of ligand depletion by bacterial transport, and comparisons of test strains in universal FD uptake assays reiterated this point. The various ESKAPE bacteria conferred fluorescence recovery at different rates (FIG. 3B). FeEnt binding at 100 s quenched the fluorescence of the FD sensor strain, E. coli OKN13/pEcoFepA-FM. […] But, the fluorescence of the E. coli strain reflected FeEnt uptake by other bacteria in the same solution: as they decreased [FeEnt] by cellular transport the intensity of OKN13/pEcoFepA-FM returned to initial levels (as described in FIG. 1B). The assay monitored FeEnt uptake by E. coli expressing chromosomal (Eco; cyan) or plasmid-mediated (Eco/pfepA+; blue) FepA, and ESKAPE species K. pneumoniae (Kpn; red), A. baumannii (Aba; gold), P. aeruginosa (Pae; green), E. cloacae (Ecl; magenta). […]
Species-specific fluorescence assay of FeEnt uptake: KpnFepA-FM. […] For species-specific ferric siderophore transport assays of Gram (−) bacteria we added an iron complex to 2×10^7 labeled cells in a quartz cuvette (final volume, 2 mL) with stirring at 37° C., and monitored the time course of fluorescence emissions at 520 nm. […] After addition of the ferric siderophore, we monitored the time-course of fluorescence emissions at 520 nm for 15-30 minutes, with stirring. […]

EcoFepA = molecular target: T2, EcoFepA (Escherichia coli, UniProt P05825); conditions: read-out: Kd, previous determinations; cited from earlier work
T2 construct: expressed in transfected cells; host or cells: E. coli OKN3 (ΔfepA), plasmid pITS23 (pHSG575, ecofepA+)
T2 sequence (P05825 23-746): as the sequence (P05825 23-746 A720C) above, with C698A counted along it

[1] = test system: chromosomally expressed FepA in E. coli; conditions: cited from earlier work
[2] = test system: KpnFepA-FM (KpnFepA0027_T210C); test: Fluorescence quenching binding of ferric catecholates to E. coli OKN13/pKpnFepA-FM; set-up: species or system K. pneumoniae; conditions: adsorption to KpnFepA
Excerpt: as §1, §2, §3

LmoHbp2_S154C-CPM = test: Hemin titration of purified LmoHbp2-CPM, fluorescence quenching; format: binding, Listeria monocytogenes; conditions: purified LmoHbp2-CPM 30 nM, 1-255 nM hemin, triplicate
Method: We substituted Cys for residue S154 in NEAT1 of LmoHbp2, expressed and purified the binding protein, and covalently modified it with coumarin maleimide (CPM). Introduction of Cys in NEAT-1 of LmoHbp2 allowed its modification by extrinsic fluorophores, transforming the purified binding protein into a sensitive sensor whose emissions inversely related to [Hn]. […] The experiment was performed in triplicate; the mean values, with standard deviations, are shown. […] When we mixed Hbp2-CPM with heterologous bacteria in solution, it reflected their hemin uptake. Addition of hemin at 300 s quenched LmoHbp2-CPM emissions, but fluorescence rebounded as bacteria {L. monocytogenes (Lmo; blue), B. subtilis (Bsu; gold), S. aureus (Sau; red), V. cholerae (Vch; green)} transported the porphyrin and depleted it from solution. […]
For fluorescence spectroscopic determinations of Gram (+) bacterial heme acquisition we used the FD sensor LmoHbp2_S154C-CPM. […] For measurements of Hn uptake by heterologous bacteria we suspended the LmoHbp2_S154C-CPM sensor protein at 30 nM in PBS+0.2% glucose in a 2 mL cuvette, added Hn to 15 nM after 300 s, and then added iron-starved bacterial cells at 600 s, to a final concentration of 5×10^7/mL, and monitored fluorescence for 2 h.

LmoHbp2 [3] = conditions: read-out: Kd, isocalorimetric; cited from earlier work
LmoHbp2 [4] = conditions: read-out: Kd, radioisotopic; cited from earlier work

For `O=C(N[C@H]1COC(=O)[C@@H](NC(=O)c2cccc([O-])c2[O-])COC(=O)[C@@H](NC(=O)c2cccc([O-])c2[O-])COC1=O)c1cccc([O-])c1[O-].[Fe+3]` [FeEnt, ferric enterobactin], the Kd (EcoFepA-FM) was ~0.38 nM and 0.4 nM, the “time required to deplete 5 nM FeEnt to 0.38 nM (half-saturation)” value (K. pneumoniae Kp52.145; 10^7 cells/mL K. pneumoniae Kp52.145) was 520 s and the “mean uptake rate over the first 520 s” value (K. pneumoniae Kp52.145; 10^7 cells/mL K. pneumoniae Kp52.145, 5 nM FeEnt) was 53 pMol/10^9 cells/min. For the same compound, the Vmax (K. pneumoniae Kp52.145; K. pneumoniae Kp52.145, mean rate ÷ 0.8) was “≈ 66 pMol/10^9 cells/min”, the Kd (EcoFepA) was 0.2 to 0.5 nM and the Vmax [1] was 50-100 pMol/min/10^9 cells.
With `O=C(N[C@H]1COC(=O)[C@@H](NC(=O)c2cc([C@@H]3O[C@H](CO)[C@@H](O)[C@H](O)[C@H]3O)cc(O)c2O)COC(=O)[C@@H](NC(=O)c2cc([C@@H]3O[C@H](CO)[C@@H](O)[C@H](O)[C@H]3O)cc(O)c2O)COC1=O)c1cccc(O)c1O.[Fe+3]` [FeGEnt, ferric salmochelin] the Kd (EcoFepA-FM) was 6 to 280 nM and the “fold lower affinity than FeEnt” value [2] was 20 fold.
In the case of hemin, the Kd (LmoHbp2_S154C-CPM) is listed as 12 ± 3.1 nM, the Kd (LmoHbp2 [3]) is listed as 25 to 48 nM and the Kd (LmoHbp2 [4]) is listed as 12 nM.
